According to PMC5428509, “Irreversible inhibition of BTK kinase by a novel highly selective inhibitor CHMFL-BTK-11 suppresses inflammatory response in rheumatoid arthritis model” (Scientific Reports, 2017):

Tests used:
Assay in all cases: biochemical
Parameters in all cases: KinomeScan competition binding panel (DiscoveRx), percent of control at 1 uM
Conditions in all cases: read-out: Percent Control
[1] = molecular target: NEK11 (Homo sapiens, UniProt Q8NG66)
In short: (§1)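 KinomeScan technology used to profile binding across a panel of 456 kinases and mutants.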

[2] = molecular target: T1, RPS6KA4(Kin.Dom.2-C-terminal) (Homo sapiens, UniProt O75676)
T1 construct: Kin.Dom.2-C-terminal
In short: as §1

[3] = molecular target: AKT3 (Homo sapiens, UniProt Q9Y243)
In short: as §1

[4] = molecular target: T2, MKK7 (Homo sapiens, UniProt O14733)
T2 construct: gene MAP2K7
T2 sequence (O14733 whole entry): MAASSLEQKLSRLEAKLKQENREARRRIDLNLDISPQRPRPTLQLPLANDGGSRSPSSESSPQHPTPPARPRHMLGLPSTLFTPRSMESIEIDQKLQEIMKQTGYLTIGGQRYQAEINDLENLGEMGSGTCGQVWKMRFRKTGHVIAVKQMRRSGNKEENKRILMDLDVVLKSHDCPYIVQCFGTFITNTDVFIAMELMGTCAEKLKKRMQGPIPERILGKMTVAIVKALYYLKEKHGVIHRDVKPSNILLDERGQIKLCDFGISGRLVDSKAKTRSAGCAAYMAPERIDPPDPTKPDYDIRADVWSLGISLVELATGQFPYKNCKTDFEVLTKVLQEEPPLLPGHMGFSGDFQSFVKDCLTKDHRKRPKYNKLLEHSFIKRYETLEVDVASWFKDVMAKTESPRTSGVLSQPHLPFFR
In short: as §1

[5] = molecular target: T3, p38-delta (Homo sapiens, UniProt O15264)
T3 construct: gene MAPK13
In short: as §1

[6] = molecular target: FGFR3 (Homo sapiens, UniProt P22607)
FGFR3, sequence (P22607 whole entry): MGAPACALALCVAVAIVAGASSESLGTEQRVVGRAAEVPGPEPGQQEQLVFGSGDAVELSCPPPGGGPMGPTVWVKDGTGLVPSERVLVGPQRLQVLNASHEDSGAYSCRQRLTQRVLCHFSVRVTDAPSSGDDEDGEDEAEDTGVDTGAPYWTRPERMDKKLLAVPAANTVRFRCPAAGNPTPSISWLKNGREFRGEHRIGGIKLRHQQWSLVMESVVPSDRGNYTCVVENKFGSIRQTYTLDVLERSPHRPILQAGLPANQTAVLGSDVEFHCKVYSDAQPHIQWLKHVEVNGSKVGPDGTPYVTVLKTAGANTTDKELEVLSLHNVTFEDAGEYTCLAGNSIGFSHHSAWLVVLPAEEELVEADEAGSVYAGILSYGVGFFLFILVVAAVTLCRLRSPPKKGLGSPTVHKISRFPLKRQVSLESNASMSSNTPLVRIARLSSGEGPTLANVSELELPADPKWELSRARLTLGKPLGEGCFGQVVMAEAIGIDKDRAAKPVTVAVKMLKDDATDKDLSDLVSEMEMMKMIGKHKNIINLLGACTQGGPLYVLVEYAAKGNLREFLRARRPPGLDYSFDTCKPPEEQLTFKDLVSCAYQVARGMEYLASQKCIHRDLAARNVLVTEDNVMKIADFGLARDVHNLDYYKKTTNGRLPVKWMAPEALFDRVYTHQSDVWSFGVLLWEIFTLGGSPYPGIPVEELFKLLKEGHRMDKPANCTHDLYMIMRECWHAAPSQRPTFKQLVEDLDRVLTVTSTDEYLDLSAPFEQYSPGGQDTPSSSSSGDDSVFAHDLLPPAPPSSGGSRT
In short: as §1

[7] = molecular target: T4, ABL1-phosphorylated (Homo sapiens, UniProt P00519)
T4 construct: phosphorylated
In short: as §1

[8] = molecular target: GRK4 (Homo sapiens, UniProt P32298)
In short: as §1

[9] = molecular target: RAF1 (Homo sapiens, UniProt P04049)
In short: as §1

[10] = molecular target: SRC (Homo sapiens, UniProt P12931)
In short: as §1

[11] = molecular target: CAMK2B (Homo sapiens, UniProt Q13554)
In short: as §1

[12] = molecular target: FGFR3(G697C) (Homo sapiens, UniProt P22607, G697C)
In short: as §1

[13] = molecular target: PIK3CA(H1047Y) (Homo sapiens, UniProt P42336, H1047Y)
PIK3CA(H1047Y), sequence (P42336 whole entry H1047Y): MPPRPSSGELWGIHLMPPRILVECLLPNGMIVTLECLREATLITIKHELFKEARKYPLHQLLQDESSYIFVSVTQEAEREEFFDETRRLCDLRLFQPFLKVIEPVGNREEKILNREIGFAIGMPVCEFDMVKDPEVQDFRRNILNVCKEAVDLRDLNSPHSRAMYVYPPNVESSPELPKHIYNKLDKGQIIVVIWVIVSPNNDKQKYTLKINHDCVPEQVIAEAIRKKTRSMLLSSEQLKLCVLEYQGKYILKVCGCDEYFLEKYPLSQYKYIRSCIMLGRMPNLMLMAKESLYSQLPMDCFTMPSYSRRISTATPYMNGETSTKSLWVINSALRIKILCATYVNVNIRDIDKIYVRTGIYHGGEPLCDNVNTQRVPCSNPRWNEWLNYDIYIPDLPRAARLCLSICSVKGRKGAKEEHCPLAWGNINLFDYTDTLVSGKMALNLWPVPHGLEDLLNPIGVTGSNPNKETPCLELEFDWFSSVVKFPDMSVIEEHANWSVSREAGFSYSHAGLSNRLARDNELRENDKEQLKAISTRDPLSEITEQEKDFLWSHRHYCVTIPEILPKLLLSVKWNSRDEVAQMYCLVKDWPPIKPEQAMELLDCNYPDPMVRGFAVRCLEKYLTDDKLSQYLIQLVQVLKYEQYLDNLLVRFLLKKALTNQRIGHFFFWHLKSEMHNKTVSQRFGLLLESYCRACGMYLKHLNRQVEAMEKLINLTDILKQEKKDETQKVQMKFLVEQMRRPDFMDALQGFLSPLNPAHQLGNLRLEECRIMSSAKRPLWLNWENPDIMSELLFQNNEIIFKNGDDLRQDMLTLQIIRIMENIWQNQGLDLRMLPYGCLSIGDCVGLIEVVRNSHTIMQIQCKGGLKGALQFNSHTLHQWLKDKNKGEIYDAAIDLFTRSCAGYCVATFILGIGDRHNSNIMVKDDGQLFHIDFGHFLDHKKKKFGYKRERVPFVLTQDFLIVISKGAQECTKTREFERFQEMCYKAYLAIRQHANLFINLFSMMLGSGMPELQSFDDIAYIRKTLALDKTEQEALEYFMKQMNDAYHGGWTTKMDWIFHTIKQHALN
In short: as §1

[14] = molecular target: SBK1 (Homo sapiens, UniProt Q52WX2)
SBK1, sequence (Q52WX2 whole entry): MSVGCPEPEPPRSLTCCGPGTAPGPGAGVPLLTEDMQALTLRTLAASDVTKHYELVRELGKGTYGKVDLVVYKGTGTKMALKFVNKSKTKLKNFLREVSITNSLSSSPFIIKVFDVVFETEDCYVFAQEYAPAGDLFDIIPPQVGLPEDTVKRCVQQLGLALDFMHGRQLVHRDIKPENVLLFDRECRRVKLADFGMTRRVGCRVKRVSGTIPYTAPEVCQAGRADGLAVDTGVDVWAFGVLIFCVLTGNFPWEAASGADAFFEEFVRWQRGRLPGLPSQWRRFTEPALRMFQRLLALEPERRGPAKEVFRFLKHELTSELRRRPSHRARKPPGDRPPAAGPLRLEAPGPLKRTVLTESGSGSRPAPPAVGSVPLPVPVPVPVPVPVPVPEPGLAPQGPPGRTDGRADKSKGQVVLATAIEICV
In short: as §1

[15] = molecular target: PIK3CA(C420R) (Homo sapiens, UniProt P42336, C420R)
PIK3CA(C420R), sequence (P42336 whole entry C420R): as the sequence (P42336 whole entry H1047Y) above, with C420R, Y1047H counted along it
In short: as §1

[16] = molecular target: CAMK2A (Homo sapiens, UniProt Q9UQM7)
CAMK2A, sequence (Q9UQM7 whole entry): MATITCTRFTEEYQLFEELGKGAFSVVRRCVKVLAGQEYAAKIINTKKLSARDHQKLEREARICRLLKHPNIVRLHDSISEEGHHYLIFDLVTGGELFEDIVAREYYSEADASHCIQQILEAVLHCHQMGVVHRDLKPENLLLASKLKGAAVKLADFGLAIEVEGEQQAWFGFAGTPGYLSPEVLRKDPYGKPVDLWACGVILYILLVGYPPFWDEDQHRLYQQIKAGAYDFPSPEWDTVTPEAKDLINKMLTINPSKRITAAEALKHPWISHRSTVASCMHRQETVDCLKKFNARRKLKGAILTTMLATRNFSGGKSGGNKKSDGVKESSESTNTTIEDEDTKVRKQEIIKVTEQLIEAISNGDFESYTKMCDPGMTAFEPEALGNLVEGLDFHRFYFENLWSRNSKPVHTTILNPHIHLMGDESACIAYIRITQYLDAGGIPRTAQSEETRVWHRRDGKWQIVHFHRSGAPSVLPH
In short: as §1

[17] = molecular target: CSF1R-autoinhibited (Homo sapiens, UniProt P07333)
In short: as §1

[18] = molecular target: CLK1 (Homo sapiens, UniProt P49759)
In short: as §1

[19] = molecular target: DAPK3 (Homo sapiens, UniProt O43293)
In short: as §1

[20] = molecular target: PIK3CA(E545A) (Homo sapiens, UniProt P42336, E545A)
In short: as §1

[21] = molecular target: T5, PFTAIRE2 (Homo sapiens, UniProt Q96Q40)
T5 construct: gene CDK15
In short: as §1

[22] = molecular target: BMX (Homo sapiens, UniProt P51813)
BMX, sequence (P51813 whole entry): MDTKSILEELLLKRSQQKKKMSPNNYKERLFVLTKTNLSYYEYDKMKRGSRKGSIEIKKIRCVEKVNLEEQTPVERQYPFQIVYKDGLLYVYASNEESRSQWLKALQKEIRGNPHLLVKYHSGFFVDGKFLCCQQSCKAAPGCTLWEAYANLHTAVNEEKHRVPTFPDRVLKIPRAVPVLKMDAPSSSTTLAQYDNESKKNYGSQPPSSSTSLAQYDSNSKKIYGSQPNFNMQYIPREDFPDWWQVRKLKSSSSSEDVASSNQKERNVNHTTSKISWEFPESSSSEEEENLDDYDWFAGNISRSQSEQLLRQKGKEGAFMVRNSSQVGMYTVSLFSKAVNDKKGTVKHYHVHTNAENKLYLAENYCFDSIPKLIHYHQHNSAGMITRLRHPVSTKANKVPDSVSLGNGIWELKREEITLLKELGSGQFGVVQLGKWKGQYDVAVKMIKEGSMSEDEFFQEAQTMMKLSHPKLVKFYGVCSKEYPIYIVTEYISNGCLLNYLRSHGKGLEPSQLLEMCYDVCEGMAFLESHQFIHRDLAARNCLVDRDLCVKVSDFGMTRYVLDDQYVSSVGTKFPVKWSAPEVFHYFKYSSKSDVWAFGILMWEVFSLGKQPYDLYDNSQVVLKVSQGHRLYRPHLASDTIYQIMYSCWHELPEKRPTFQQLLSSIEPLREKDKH
In short: as §1

[23] = molecular target: CHEK1 (Homo sapiens, UniProt O14757)
CHEK1, sequence (O14757 whole entry): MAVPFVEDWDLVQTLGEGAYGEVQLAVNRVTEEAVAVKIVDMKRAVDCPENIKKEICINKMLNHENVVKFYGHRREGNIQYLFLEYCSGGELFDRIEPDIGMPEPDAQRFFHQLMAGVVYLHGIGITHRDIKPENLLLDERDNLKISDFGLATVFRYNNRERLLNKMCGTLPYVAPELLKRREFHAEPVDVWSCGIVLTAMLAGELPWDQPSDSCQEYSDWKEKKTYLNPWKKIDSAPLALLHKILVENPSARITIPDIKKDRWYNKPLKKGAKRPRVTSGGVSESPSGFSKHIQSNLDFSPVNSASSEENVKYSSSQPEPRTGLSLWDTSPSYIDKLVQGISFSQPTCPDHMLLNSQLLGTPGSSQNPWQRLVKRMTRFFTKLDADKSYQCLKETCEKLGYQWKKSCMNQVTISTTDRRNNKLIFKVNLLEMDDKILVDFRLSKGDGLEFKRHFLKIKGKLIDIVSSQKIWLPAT
In short: as §1

[24] = molecular target: T6, ABL1(F317I)-nonphosphorylated (Homo sapiens, UniProt P00519, F317I)
T6 construct: nonphosphorylated
In short: as §1

NEK11, sequence (Q8NG66 whole entry): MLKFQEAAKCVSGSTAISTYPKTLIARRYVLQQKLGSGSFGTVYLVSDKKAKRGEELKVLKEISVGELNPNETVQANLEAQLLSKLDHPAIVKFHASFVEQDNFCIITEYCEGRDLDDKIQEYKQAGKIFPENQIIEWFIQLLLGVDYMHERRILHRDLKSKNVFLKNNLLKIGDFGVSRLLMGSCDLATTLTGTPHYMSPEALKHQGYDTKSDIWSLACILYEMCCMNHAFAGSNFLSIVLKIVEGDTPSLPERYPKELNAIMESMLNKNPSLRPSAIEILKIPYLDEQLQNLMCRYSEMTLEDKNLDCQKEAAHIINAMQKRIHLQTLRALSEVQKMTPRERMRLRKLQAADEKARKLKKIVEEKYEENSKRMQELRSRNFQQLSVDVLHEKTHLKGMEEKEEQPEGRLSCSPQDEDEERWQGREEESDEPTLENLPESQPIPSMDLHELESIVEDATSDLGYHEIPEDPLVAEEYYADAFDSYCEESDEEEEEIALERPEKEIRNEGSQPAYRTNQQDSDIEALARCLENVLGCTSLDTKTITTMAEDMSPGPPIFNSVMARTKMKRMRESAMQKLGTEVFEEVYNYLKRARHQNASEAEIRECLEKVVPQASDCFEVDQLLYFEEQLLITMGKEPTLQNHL

Which results are given for C=CC(=O)Nc1cc(-n2c(=O)ccc3cnc4ccc(-n5cccn5)cc4c32)ccc1C [CHMFL-BTK-11]?
remaining binding at 1 µM [1]: 96%; remaining binding at 1 µM [2]: 100%; remaining binding at 1 µM [3]: 100%; remaining binding at 1 µM [4]: 77%; remaining binding at 1 µM [5]: 96%; remaining binding at 1 µM [6]: 89%; remaining binding at 1 µM [7]: 78%; remaining binding at 1 µM [8]: 94%; remaining binding at 1 µM [9]: 100%; remaining binding at 1 µM [10]: 98%; remaining binding at 1 µM [11]: 100%; remaining binding at 1 µM [12]: 100%; remaining binding at 1 µM [13]: 82%; remaining binding at 1 µM [14]: 81%; remaining binding at 1 µM [15]: 74%; remaining binding at 1 µM [16]: 100%; remaining binding at 1 µM [17]: 70%; remaining binding at 1 µM [18]: 92%; remaining binding at 1 µM [19]: 100%; remaining binding at 1 µM [20]: 76%; remaining binding at 1 µM [21]: 100%; remaining binding at 1 µM [22]: 23%; remaining binding at 1 µM [23]: 100%; remaining binding at 1 µM [24]: 100%
